In PubChem BioAssay (NCI):
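Growth conditions: 96-well plates. Treatment: test compound, 48 hours, 5 concentrations. Analysis: linear interpolation between bracketing concentrations; unreached endpoints set to highest concentration. GI50 is the concentration that inhibits growth by half. TGI denotes the concentration required for complete inhibition of growth.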

Experiments:
Test in all cases: inhibition of tumour cell growth, NCI panel, 48 h
K-562 leukemia = test system: K-562 leukemia
NCI/ADR-RES ovarian = test system: NCI/ADR-RES ovarian
SNB-75 CNS = test system: SNB-75 CNS
T-47D breast = test system: T-47D breast
SK-OV-3 ovarian = test system: SK-OV-3 ovarian

NC(N)=Nc1ccc(Nc2cccc(Oc3ccc(Cl)c(C(F)(F)F)c3)c2)cn1
GI50 (K-562 leukemia): 2.11 µM | TGI (K-562 leukemia): > 100 µM | GI50 (NCI/ADR-RES ovarian): 15.6 µM | TGI (NCI/ADR-RES ovarian): > 100 µM | GI50 (SNB-75 CNS): 1.6 µM | TGI (SNB-75 CNS): 3.33 µM | GI50 (T-47D breast): 1.62 µM | TGI (T-47D breast): 4.55 µM | GI50 (SK-OV-3 ovarian): 3.5 µM | TGI (SK-OV-3 ovarian): 13.2 µM
